{
  "source": "patent US20070248955A1",
  "about": "“Use Of Genetic Polymorphisms To Predict Drug-Induced Hepatotoxicity” (NOVARTIS AG, priority 2003, published 2007)",
  "test": "Hepatotoxicity (fold increases of AST or ALT over the upper limit of normal) in the phase II clinical trial",
  "assay_type": "in vivo, human",
  "protocol": "Relevant genetic polymorphisms were identified in a multicenter, randomized, double-masked placebo-controlled dose finding phase II trial of N-benzoyl-staurosporine, which was conducted in subjects with diabetic macular edema. The safety of N-benzoyl-staurosporine was evaluated in the subjects and additional pharmacokinetic information on was collected. […] Subjects were flagged as having experienced hepatotoxicity if either aspartate aminotransferase (AST) or alanine aminotransferase (ALT) had fold elevations over the upper limit of normal on visit 3, 4 or 5.\nThe diagnosis of hepatotoxicity can be accomplished using assays of serum enzyme levels. Serum enzyme assays indicative of liver dysfunction are well-known to those of skill in the medical arts and routine in hospital laboratories. For a definition of hepatotoxicity based upon serum levels of aspartate transaminase (AST) and used in the EXAMPLE: The definition of hepatotoxicity used in this analysis was based on fold increases in serum aspartate transaminase or alanine aminotransferase over the upper limit of normal (ULN) on visits 3, 4 or 5. The upper limit of normal for serum aspartate transaminase is 42 U/L for ages 3-64 and 55 U/L for ages 65 and up; for serum alanine aminotransferase the upper limit of normal is 48 U/L (Smithkline Beecham Clinical Laboratories Reference Alert Ranges). While an elevation of either enzyme at visit 3, 4 or 5 constituted hepatotoxicity, transaminase elevations were disregarded during subsequent visits when the drug was not being administered. Furthermore, subjects who had elevated liver function tests at baseline (visit 2) were not flagged as having experienced hepatotoxicity, regardless of the elevation in their enzyme levels following administration of the drug. Nine subjects were flagged as having experienced hepatotoxicity. Of these, six consented to clinical pharmacogenetic analysis.\nHepatotoxicity and N-benzoyl-staurosporine metabolism. The relationship between the occurrence of hepatotoxicity in the clinical trial and the dose of N-benzoyl-staurosporine administered was examined. The percentage of subjects per dose group that experienced hepatotoxicity are as follows: 3% for 50 mg/day, 8% for 100 mg/day and 14% of those that took 150 mg/day. While most of the subjects that experienced liver toxicity took the highest dose of N-benzoyl-staurosporine, the association between of N-benzoyl-staurosporine dose and hepatotoxicity is not significant (p=0.09; Fisher's Exact).",
  "data": [
    {"smiles": "CO[C@@H]1[C@H](N(C)C(=O)c2ccccc2)C[C@H]2O[C@]1(C)n1c3ccccc3c3c4c(c5c6ccccc6n2c5c31)C(=O)NC4", "note": "[N-benzoyl-staurosporine]", "values": [
      {"measurement": "percentage of subjects per dose group that experienced hepatotoxicity", "setting": "50 mg/day, subjects with diabetic macular edema", "value": 3, "unit": "%"},
      {"measurement": "percentage of subjects per dose group that experienced hepatotoxicity", "setting": "100 mg/day, subjects with diabetic macular edema", "value": 8, "unit": "%"},
      {"measurement": "percentage of subjects per dose group that experienced hepatotoxicity", "setting": "150 mg/day, subjects with diabetic macular edema", "value": 14, "unit": "%"},
      {"measurement": "Hepatotoxicity Yes", "setting": "CPG samples (83 subjects, all arms incl. 0 mg/day)", "value": 7, "unit": "%"},
      {"measurement": "Hepatotoxicity Yes", "setting": "Trial samples (139 subjects, all arms incl. 0 mg/day)", "value": 6, "unit": "%"},
      {"measurement": "subjects that experienced hepatotoxicity", "setting": "of the 140 subjects enrolled in the clinical trial (all arms)", "value": "nine"},
      {"measurement": "safety profile", "setting": "phase II trial, subjects with diabetic macular edema", "value": "good safety profile"}
    ]}
  ]
}
